From patent US20040063659A1, “Novel 2'-halomethylidene,2'-ethenylidene and 2'-ethynyl cytidine, uridine and guanosine derivatives” (Merrell Pharmaceuticals Inc., priority 1988, published 2004)
Converted amounts (≈) assume the structure as drawn.

Test system: HeLa cells
Test: Inhibitory effects of compounds on HeLa cell proliferation in vitro
Format: cell-based
Conditions: Homo sapiens; exponentially growing HeLa cells, incubated with test compound for 96 hours; concentration at 50% inhibition of cell growth
Experimental: The inhibitory effect of various compounds of formula (1) on HeLa cell proliferation in vitro was determined according to the method described by Sunkara et al. [J. Natl Cancer Instit. 70, 505-509 (1983)]. Exponentially growing HeLa cells were incubated in the presence or absence of various concentrations of test compounds for 96 hours. IC50 values were calculated which represent the test compound concentration at 50% inhibition of cell growth.

Row | IC50 | SMILES
1 | 1 to 5 µg/mL (≈ 3.89 to 19.4 µM) | Nc1ccn([C@@H]2O[C@H](CO)[C@@H](O)/C2=C/F)c(=O)n1 [Compound B, (Z)-2′-deoxy-2′-fluoromethylidene cytidine]
2 | 0.01 to 0.015 µg/mL (≈ 0.0389 to 0.0583 µM) | Nc1ccn([C@@H]2O[C@H](CO)[C@@H](O)/C2=C\F)c(=O)n1 [Compound A, (E)-2′-deoxy-2′-fluoromethylidene cytidine]
